Source: patent publication US4015974A, “Amido phosphorothiolates” (priority 1972, dated 1977)
In brackets after ≈: the same amount, converted by molar mass.

Assays:
Type in all cases: in vivo
[1] = test system: barnyard grass (Echinochloa crus-galli); assay: Pre-emergence application, herbicidal effect on barnyard grass (Table 1); set-up: key: 0: not damaged; 5: completely killed; conditions: 20 days after application, score 0-5
How it was run: (§1)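 Pre-emergence soil treatment: seeds sown in pots of about 10 cm and covered with soil, then compounds applied as wettable powder diluted in water. Plants grown in a greenhouse; damage scored 20 days after application from 0 (not damaged) to 5 (completely killed).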

[2] = test system: large crabgrass (Digitaria sanguinalis); assay: Pre-emergence application, herbicidal effect on large crabgrass (Table 1); set-up: key: 0: not damaged; 5: completely killed; conditions: 20 days after application, score 0-5
How it was run: as §1

radish = assay: Pre-emergence application, herbicidal effect on radish (Table 1); set-up: key: 0: not damaged; 5: completely killed; conditions: 20 days after application, score 0-5
How it was run: as §1

[3] = test system: redroot pigweed (Amaranthus retroflexus); assay: Pre-emergence application, herbicidal effect on redroot pigweed (Table 1); set-up: key: 0: not damaged; 5: completely killed; conditions: 20 days after application, score 0-5
How it was run: as §1

[4] = test system: common purslane (Portulaca oleracea); assay: Pre-emergence application, herbicidal effect on common purslane (Table 1); set-up: key: 0: not damaged; 5: completely killed; conditions: 20 days after application, score 0-5
How it was run: as §1

[5] = test system: common lambsquarter (Chenopodium album); assay: Pre-emergence application, herbicidal effect on common lambsquarter (Table 1); set-up: key: 0: not damaged; 5: completely killed; conditions: 20 days after application, score 0-5
How it was run: as §1

rice = assay: Water application, phytotoxicity on rice (Table 2); set-up: key: 0: no effect; 1: very slightly affected; 2: slightly affected; 3: moderately affected; 4: considerably affected; 5: completely killed; conditions: 25 days, score 0-5
How it was run: (§2)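 Flooded paddy-soil pots with 3-leaf-stage transplanted rice and sown barnyard grass; wettable-powder compounds applied to soil under water. Herbicidal effect and rice phytotoxicity, also on spontaneously germinated broad-leaved weeds, scored 0–5 at 25 days after application.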

[6] = test system: barnyard grass (Echinochloa crus-galli); assay: Water application, herbicidal effect on barnyard grass (Table 2); set-up: key: 0: not damaged; 5: completely killed; conditions: 25 days, score 0-5
How it was run: as §2

[7] = test system: broad-leaved weeds, e.g., monochoria, false pimpernel and toothcup; assay: Water application, herbicidal effect on broad-leaved weeds (Table 2); set-up: key: 0: not damaged; 5: completely killed; conditions: 25 days, score 0-5
How it was run: as §2

[8] = test system: barnyard grass (Echinochloa crus-galli); assay: Water application, herbicidal effect on barnyard grass (Table 2); set-up: key: 0: no effect; 1: very slightly affected; 2: slightly affected; 3: moderately affected; 4: considerably affected; 5: completely killed; conditions: 10 g/a, 25 days, score 0-5
From the text: (§3) Wagner pots of 14 cm. in diameter, which had been packed with 1.5 kg. of paddy field soil, were brought into the state of paddy fields. To the pots were transplanted rice seedlings at the 3-leave stage. Further, seeds of barnyard grass (Echinochloa crus-galli) were sowed in the pots and required amounts of test compounds were applied to the soil under water lodged condition. 25 days after application, the degrees of herbicidal activity and phytotoxity were investigated on above-mentioned plants which had been transplanted and sowed, and on broad-leaved weeds, e.g., monochoria (Monochoria viaginalis Presl.), false pimpernel (Linderna pyxidaria) and toothcup (Rotala indica Koehue), which had been spontaneously germinated. The test compounds were used in the form of wettable powder. The herbicidal effects and the phytotoxity were evaluated as follows by the numerals ranging from 0 to 5.

[9] = test system: carmine mite (Tetranychus telavius); assay: Lethal effect on carmine mite, leaf dipping (Table 3); conditions: foliar, 48 h
Protocol: A large number of carmine mite adult were made parasitic on leaves of potted kidney beans at a 2-leaves stage which had elapsed 10 days after sowing. The leaves of kidney bean on which carmine mites had been made parasitic were dipped for 1 minute in each aqueous solution of the present compounds of wettable powder type. Water was given to the leaves not to kill them, and after 48 hours the death and alive were observed microscopically to calculate the mortality. Values of LC50 were obtained from the mortality.

[10] = test system: rice stem borer (Chilo suppressalis); assay: Lethal effect on rice stem borer (Table 6); conditions: 50 % emulsifiable concentrate, 1000 fold dilute solution, 4 days after application
From the text: Eggs just before hatch of the rice stem borer were applied in a ratio of 100/pot near the root of rice plants grown up into the tillering stage in an […] Wagner's pot. After eggs were hatched and the larvae entered into stems of rice plants, an 1000 fold dilute solution of each 50 % emulsifiable concentrates of the present compounds was applied by means of a turn table.

nematode = assay: Effect on nematode (Table 7); set-up: tested at 500 ppm; conditions: 500 p.p.m., 24 hours
Protocol: 0.5 ml. of a nematode-containing aqueous solution separated from food according to Baermann's method was placed in a test tube with ground stopper containing 0.5 ml. of an aqueous dilute solution of each emulsifiable concentrates of the present compounds. The concentration of the active ingredient in the mixture was adjusted to 500 p.p.m. After 24 hours, the death and alive were observed microscopically to calculate the mortality.

[11] = test system: broad-leaved weeds, e.g., monochoria, false pimpernel and toothcup; assay: Water application, herbicidal effect on broad-leaved weeds (Table 2); set-up: key: 0: no effect; 1: very slightly affected; 2: slightly affected; 3: moderately affected; 4: considerably affected; 5: completely killed; conditions: 10 g/a, 25 days, score 0-5
From the text: as §3

| Structure (SMILES) | Herbicidal effect, barnyard grass ([1]; 10 g./a.) | Herbicidal effect, barnyard grass ([1]; 20 g./a.) | Herbicidal effect, barnyard grass ([1]; 40 g./a.) | Herbicidal effect, large crabgrass ([2]; 10 g./a.) | Herbicidal effect, large crabgrass ([2]; 20 g./a.) | Herbicidal effect, large crabgrass ([2]; 40 g./a.) | Herbicidal effect, radish (radish; 10 g./a.) | Herbicidal effect, radish (radish; 20 g./a.) | Herbicidal effect, radish (radish; 40 g./a.) | Herbicidal effect, redroot pigweed ([3]; 10 g./a.) | Herbicidal effect, redroot pigweed ([3]; 20 g./a.) | Herbicidal effect, redroot pigweed ([3]; 40 g./a.) | Herbicidal effect, common purslane ([4]; 10 g./a.) | Herbicidal effect, common purslane ([4]; 20 g./a.) | Herbicidal effect, common purslane ([4]; 40 g./a.) | Herbicidal effect, common lambsquarter ([5]; 10 g./a.) | Herbicidal effect, common lambsquarter ([5]; 20 g./a.) | Herbicidal effect, common lambsquarter ([5]; 40 g./a.) | Phytotoxicity on rice (rice; 10 g/a) | Phytotoxicity on rice (rice; 20 g/a) | other results |
| --- | --- | --- | --- | --- | --- | --- | --- | --- | --- | --- | --- | --- | --- | --- | --- | --- | --- | --- | --- | --- | --- |
| CCOP(=O)(SCCCC(C)C)SCC(=O)N1CCCCC1CC (stereo not shown) [Compound 80] | 4 | 5 | 5 | 5 | 5 | 5 | 0 | 0 | 0 | 3 | 4 | 5 | 3 | 4 | 5 | 3 | 4 | 5 | 0 | 0 | Phytotoxicity on rice (rice; 40 g/a): 2; Herbicidal effects, barnyard grass ([6]; 20 g/a): 5; Herbicidal effects, barnyard grass ([6]; 40 g/a): 5; Herbicidal effects, broad-leaved weeds ([7]; 10 g/a): 5; Herbicidal effects, broad-leaved weeds ([7]; 20 g/a): 5; Herbicidal effects, broad-leaved weeds ([7]; 40 g/a): 5; Herbicidal effects, barnyard grass [8]: 4 |
| CCOP(=O)(SCC(=O)N1CCCCC1C)SCC(C)c1ccccc1 (stereo not shown) [Compound 65] | 5 | 5 | 5 | 5 | 5 | 5 | 0 | 0 | 0 | 4 | 4 | 5 | 4 | 4 | 5 | 4 | 4 | 5 | 0 | 0 | Phytotoxicity on rice (rice; 40 g/a): 0; Herbicidal effects, barnyard grass ([6]; 20 g/a): 5; Herbicidal effects, barnyard grass ([6]; 40 g/a): 5; Herbicidal effects, broad-leaved weeds ([7]; 10 g/a): 5; Herbicidal effects, broad-leaved weeds ([7]; 20 g/a): 5; Herbicidal effects, broad-leaved weeds ([7]; 40 g/a): 5; Herbicidal effects, barnyard grass [8]: 4 |
| CCCCSP(=O)(OCC)SCC(=O)N1CCCCC1C (stereo not shown) [Compound 4] | 4 | 5 | 5 | 5 | 5 | 5 | 0 | 0 | 0 | 4 | 4 | 4 | 4 | 4 | 5 | 4 | 4 | 5 | 0 | 0 | Phytotoxicity on rice (rice; 40 g/a): 0; LC50 [9]: 11.4 µg/mL (≈ 32.2 µM); Mortality [10]: 97.6%; Mortality (nematode): 100%; Herbicidal effects, barnyard grass ([6]; 10 g/a): 5; Herbicidal effects, barnyard grass ([6]; 20 g/a): 5; Herbicidal effects, barnyard grass ([6]; 40 g/a): 5; Herbicidal effects, broad-leaved weeds ([7]; 20 g/a): 5; Herbicidal effects, broad-leaved weeds ([7]; 40 g/a): 5; Herbicidal effects, broad-leaved weeds [11]: 4 |
| C=C(Cl)CSP(=O)(OCC)SCC(=O)N1CCCCC1C (stereo not shown) [Compound 9] | 5 | 5 | 5 | 5 | 5 | 5 | 0 | 0 | 0 | 4 | 5 | 5 | 5 | 5 | 5 | 4 | 5 | 5 | 0 | 0 | Phytotoxicity on rice (rice; 40 g/a): 0; Mortality [10]: 100%; Mortality (nematode): 100%; Herbicidal effects, barnyard grass ([6]; 10 g/a): 5; Herbicidal effects, barnyard grass ([6]; 20 g/a): 5; Herbicidal effects, barnyard grass ([6]; 40 g/a): 5; Herbicidal effects, broad-leaved weeds ([7]; 10 g/a): 5; Herbicidal effects, broad-leaved weeds ([7]; 20 g/a): 5; Herbicidal effects, broad-leaved weeds ([7]; 40 g/a): 5 |
| CCCCSP(=O)(OCC)SCC(=O)N1CCC(C)CC1 (stereo not shown) [Compound 24] | 4 | 5 | 5 | 4 | 5 | 5 | 0 | 0 | 0 | 3 | 4 | 4 | 4 | 4 | 4 | 3 | 4 | 4 | 0 | 0 | Phytotoxicity on rice (rice; 40 g/a): 0; Mortality [10]: 83.0%; Herbicidal effects, barnyard grass ([6]; 10 g/a): 5; Herbicidal effects, barnyard grass ([6]; 20 g/a): 5; Herbicidal effects, barnyard grass ([6]; 40 g/a): 5; Herbicidal effects, broad-leaved weeds ([7]; 20 g/a): 5; Herbicidal effects, broad-leaved weeds ([7]; 40 g/a): 5; Herbicidal effects, broad-leaved weeds [11]: 4 |
| C=CCSP(=O)(OCCC)SCC(=O)N1CCC(C)CC1 (stereo not shown) [Compound 18] | 4 | 5 | 5 | 5 | 5 | 5 | 0 | 0 | 0 | 4 | 4 | 5 | 4 | 4 | 5 | 4 | 5 | 5 | 0 | 0 | Phytotoxicity on rice (rice; 40 g/a): 0; Mortality [10]: 76.4%; Herbicidal effects, barnyard grass ([6]; 10 g/a): 5; Herbicidal effects, barnyard grass ([6]; 20 g/a): 5; Herbicidal effects, barnyard grass ([6]; 40 g/a): 5; Herbicidal effects, broad-leaved weeds ([7]; 10 g/a): 5; Herbicidal effects, broad-leaved weeds ([7]; 20 g/a): 5; Herbicidal effects, broad-leaved weeds ([7]; 40 g/a): 5 |
